Experimental data taken from patent US20090113563A1, “Probe for detecting nuclear receptor agonist or antagonist and method for screening agonist or antagonist to nuclear receptor with the use of the same” (priority 2004, published 2009).
No end group written: not given here.

Key:
[1] = biological target: T1, human estrogen receptor αLBD (Homo sapiens, UniProt P03372); test: FRET probe (CFP-SRC-1 LXXLL-linker-ER αLBD-YFP) for estrogen receptor agonist/antagonist in living CHO-K1 cells; type: cell-based
T1 construct: expressed in transfected cells; host or cells: CHO-K1 (Chinese hamster ovary), pcDNA3.1(+)
T1 sequence (P03372 with tags, fused parts or gaps L306P/I326L/L327I/T334S/V368G/T371N/T483N/Q502R/S527N): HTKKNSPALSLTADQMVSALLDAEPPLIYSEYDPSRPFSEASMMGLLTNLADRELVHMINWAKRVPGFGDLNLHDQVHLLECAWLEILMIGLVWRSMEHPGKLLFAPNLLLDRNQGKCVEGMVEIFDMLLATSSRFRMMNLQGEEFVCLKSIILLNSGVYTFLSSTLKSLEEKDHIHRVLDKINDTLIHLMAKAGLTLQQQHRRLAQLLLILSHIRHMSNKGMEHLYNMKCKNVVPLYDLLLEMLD
Protocol: (§1) Each cell was cultured in Ham's F-12 medium supplemented with 10% fetal calf serum (FCS)b and Dulbecco's modified eagle medium supplemented with 10% FCS, 1.0 mM sodium pyruvate and 0.1 mM nonessential amino acids respectively at 37° C. in a humidified atmosphere 5% CO2. Cells were transfected with an expression vector pcDNA3.1(+) containing a probe in the presence of lipofectAMINE 2000 reagent in glass bottom dishes.
(§2) The cells were Chinese hamster ovary (CHO-K1) cells for a probe for detecting an agonist or an antagonist to an estrogen receptor or a peroxisome growth factor-activating receptor, and pig kidney (PK-15) cells for a probe for detecting an agonist or an antagonist to an androgen receptor.
(§3) Before imageing, the culture medium was replaced with Hanks' balanced salt solution.
(§4) The exposure time at 440±10 nm excitation was 100 ms.
The ED50 values were converted to relative recruitment ability (RRA; Non-Patent Document 34) to compare the relative abilities of the tested compounds to promote the recruitment of the binding-responsive site to the ligand-recognition site. The RRA were calculated using the following equation.

PPAR γ-LBD = biological target: T2, PPAR γ-LBD (Homo sapiens, UniProt P37231); test: FRET probe for peroxisome proliferator-activated receptor agonist/antagonist in living CHO-K1 cells; type: cell-based; conditions: 10 μM
T2 construct: expressed in transfected cells; host or cells: CHO-K1, pcDNA3.1(+)
T2 sequence (P37231 235-505): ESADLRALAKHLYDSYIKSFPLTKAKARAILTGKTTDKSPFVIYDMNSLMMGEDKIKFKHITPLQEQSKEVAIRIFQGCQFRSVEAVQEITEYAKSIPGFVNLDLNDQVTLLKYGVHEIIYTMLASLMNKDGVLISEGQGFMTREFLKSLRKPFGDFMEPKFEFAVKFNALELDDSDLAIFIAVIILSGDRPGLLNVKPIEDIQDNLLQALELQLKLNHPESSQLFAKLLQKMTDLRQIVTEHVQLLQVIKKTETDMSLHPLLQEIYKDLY
Protocol: According to nearly the same procedure as in the case of the above (A), a plasmid was constructed.
as §1, §2, §3, §4

[2] = biological target: T3, human androgen receptor LBD (Homo sapiens, UniProt P10275); test: FRET probe for androgen receptor agonist/antagonist in living PK-15 cells; type: cell-based
T3 construct: expressed in transfected cells; host or cells: PK-15 (pig kidney), pcDNA3.1(+)
T3 sequence (P10275 674-912): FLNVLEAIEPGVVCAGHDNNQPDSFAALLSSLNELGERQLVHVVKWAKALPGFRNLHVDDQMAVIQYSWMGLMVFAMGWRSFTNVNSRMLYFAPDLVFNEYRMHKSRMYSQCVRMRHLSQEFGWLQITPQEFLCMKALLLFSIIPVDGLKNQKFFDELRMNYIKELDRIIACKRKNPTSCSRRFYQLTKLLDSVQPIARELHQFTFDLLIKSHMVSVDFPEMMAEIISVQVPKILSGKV
Protocol: According to nearly the same procedure as in the cases of the above (A) and (B), a plasmid was constructed.
as §1, §2, §3, §4

[3] = biological target: T4, peroxisome growth factor-activating receptor γ ligand-binding domain (235-505aa) (Homo sapiens (Human), UniProt P37231 235-505); test: intramolecular CFP/YFP FRET of the probe in CHO-K1 cells, 10 µM 15d-PGJ2
T4 construct: also called PPAR γ-LBD
T4 sequence: T2 sequence (P37231 235-505)
Protocol: CHO-K1 cells expressing the probe (FIG. 2B) were stimulated by 10 μM 15d-PGJ₂ and the event was observed by following time course fo the changes in FRET.

[4] = biological target: T5, human estrogen receptor α ligand-binding domain (305-550aa) (human, UniProt P03372 305-550); test: cell-based or functional assay
T5 sequence (looked up): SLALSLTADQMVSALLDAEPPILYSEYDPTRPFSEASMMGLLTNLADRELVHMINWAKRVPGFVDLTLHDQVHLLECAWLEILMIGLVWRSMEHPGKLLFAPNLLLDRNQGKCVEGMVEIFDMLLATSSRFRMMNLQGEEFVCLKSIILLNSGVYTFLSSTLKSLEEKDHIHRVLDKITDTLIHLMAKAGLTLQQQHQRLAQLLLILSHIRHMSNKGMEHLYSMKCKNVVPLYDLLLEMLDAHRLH

[5] = biological target: T6, human androgen receptor ligand-binding domain (672-910aa) (human, UniProt O97775 665-903 (Pan troglodytes entry)); test: intramolecular CFP/YFP FRET in living cells, 100 nM DHT
T6 construct: also called AR-LBD; ligand-recognition site
T6 sequence: T3 sequence (P10275 674-912)

[6] = biological target: T5, human estrogen receptor α …; test: intramolecular CFP/YFP FRET in living cells, 100 nM E2

4-hydroxytamoxifen [OHT]
change in FRET response [1]: no increase in the FRET

CCCCC/C=C/C=C1/C(=O)C=C[C@@H]1C/C=C\CCCC(=O)O [15d-PGJ2, 15-deoxy-Δ^12,14-prostaglandin J2]
change in CFP/YFP emission ratio (480/535 nm) (PPAR γ-LBD; FIG. 4B-a): decrease in CFP/YFP emission ratio (480/535 nm) (increase in FRET) | time for emission ratio decrease to reach plateau (PPAR γ-LBD; FIG. 4B-a): ≤ 1000 s

CC(C)(c1ccc(OCC2CO2)cc1)c1ccc(OCC2CO2)cc1 (stereo not drawn) [BADGE, bisphenol A diglycidyl ether]
change in emission ratio (FRET response) (PPAR γ-LBD; FIG. 7): no significant change in the emission ratio

C[C@]12CCC(=O)C=C1CC[C@@H]1[C@@H]2[C@@H](O)C[C@@]2(C)[C@H]1CC[C@]2(O)C(=O)CO [cortisol]
FRET response over tested concentration range ([2]; PK-15 cells, 1.0×10^−4 to 1.0×10^−11 M, FIG. 5B): did not show the response at any tested concentration

CC12CC1(C)C(=O)N(c1cc(Cl)cc(Cl)c1)C2=O (stereo not drawn) [procymidone]
change in FRET response, antagonist alone ([2]; 100 nM alone, PK-15, FIG. 8): no significant increase in the FRET | FRET response with DHT plus antagonist ([2]; DHT 1.0, 10, 100 nM + 10 μM antagonist, PK-15, FIG. 8): the FRET level increased in a dose dependent manner of DHT

nonylphenol [NP]
relative recruitment ability (RRA) ([1]; RRA=(conc. E2 [50% response]/conc. EDC [50% response])×100, E2 set at 100): 3.0 | EC50 ([1]; read-out: EC50 (concentration inducing 50% response of LXXLL motif recruitment to ER αLBD), CHO-K1 cells expressing the probe, from response curves of FIG. 5A, tested 1.0×10^−4 to 1.0×10^−11 M): 0.26 µM

B1: steroid receptor coactivator 1 NR box II (687-697aa) coactivator peptide (peptide)
peptide: HKILHRLLQEG
modifications: also: segment of CFP–NR box–GGNGG-type linker–LBD–YFP fusion probe
notes: Not tested as a free peptide; also called SRC-1 NR box II
binding result [3]: binds | EC50 of the small-molecule ligand DES for the FRET response of the probe (CHO-K1 cells) [4]: 0.013 µM | EC50 of the small-molecule ligand E2 for the FRET response of the probe (CHO-K1 cells) [4]: 0.008 µM | EC50 of the small-molecule ligand NP for the FRET response of the probe (CHO-K1 cells) [4]: 0.26 µM

B2: mutant binding-responsive site of the mutant probe (SEQ ID No: 7): all leucine residues of the LXXLL motif replaced with alanine (peptide)
peptide: HKIAHRAAQEG
notes: also called mutant LXXLL motif
binding result [5]: no binding | binding result [6]: no binding
